In the supplement of paper PMC10307832 one finds relative viability data, which are given here for 15 cell lines.

Common to all, as to test: relative viability (nuclei count vs DMSO), 5 days (fraction); higher = more cells survive
Compound in the assay “AZD5582 + Dasatinib”: C[C@@H](C(=O)N[C@@H](C1CCCCC1)C(=O)N2CCC[C@H]2C(=O)N[C@@H]3[C@@H](CC4=CC=CC=C34)OCC#CC#CCO[C@@H]5CC6=CC=CC=C6[C@@H]5NC(=O)[C@@H]7CCCN7C(=O)[C@H](C8CCCCC8)NC(=O)[C@H](C)NC)NC [AZD5582] + Cc1nc(Nc2ncc(C(=O)Nc3c(C)cccc3Cl)s2)cc(N2CCN(CCO)CC2)n1 [Dasatinib] (partner 0.075 µM)
In short, it runs like this: (§1)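 A single step with final 0.05% Triton X-100, 1% formaldehyde and 1 ug/ml Hoechst fixed the cells and stained nuclei 5 days after treatment. Lung cancer cell lines in 1536-well plates had been treated by pin tool the day after seeding with one drug alone or a fixed anchor-drug dose plus five library-drug doses (not always all listed) in √10 steps, and nuclei were counted on 4× images. Relative viability is the ratio of nuclei in treated wells to nuclei in vehicle wells, taken as the median of duplicate plates.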

Compound in the assay “Temozolomide + Lapatinib”: Cn1nnc2c(C(N)=O)ncn2c1=O [Temozolomide] + CS(=O)(=O)CCNCc1ccc(-c2ccc3ncnc(Nc4ccc(OCc5cccc(F)c5)c(Cl)c4)c3c2)o1 [Lapatinib] (partner 2 µM)
The gist of the method:
as §1

Compound in the assay “AZD5582 + Pemetrexed”: C[C@@H](C(=O)N[C@@H](C1CCCCC1)C(=O)N2CCC[C@H]2C(=O)N[C@@H]3[C@@H](CC4=CC=CC=C34)OCC#CC#CCO[C@@H]5CC6=CC=CC=C6[C@@H]5NC(=O)[C@@H]7CCCN7C(=O)[C@H](C8CCCCC8)NC(=O)[C@H](C)NC)NC [AZD5582] + Nc1nc2[nH]cc(CCc3ccc(C(=O)N[C@@H](CCC(=O)O)C(=O)O)cc3)c2c(=O)[nH]1 [Pemetrexed] (partner 0.2 µM)
The gist of the method: as §1

Compound in the assay “AZD5582 + Linsitinib”: C[C@@H](C(=O)N[C@@H](C1CCCCC1)C(=O)N2CCC[C@H]2C(=O)N[C@@H]3[C@@H](CC4=CC=CC=C34)OCC#CC#CCO[C@@H]5CC6=CC=CC=C6[C@@H]5NC(=O)[C@@H]7CCCN7C(=O)[C@H](C8CCCCC8)NC(=O)[C@H](C)NC)NC [AZD5582] + C[C@]1(O)C[C@@H](c2nc(-c3ccc4ccc(-c5ccccc5)nc4c3)c3c(N)nccn32)C1 [Linsitinib] (partner 1 µM)
The gist of the method:
as §1

For the cell line LCLC-97TM1, the relative viability stood at 0.748 in the assay with AZD5582 + Dasatinib (first compound 0.001581 µM); 0.91 with AZD5582 + Dasatinib (first compound 0.005 µM); 0.768 with AZD5582 + Dasatinib (first compound 0.01581 µM); 0.825 in the assay with AZD5582 + Dasatinib (first compound 0.05 µM); 0.929 with Temozolomide + Lapatinib (first compound 0.2 µM); 1.28 with Temozolomide + Lapatinib (first compound 0.6325 µM). In addition, the relative viability in the assay with Temozolomide + Lapatinib (first compound 2 µM) was determined as 0.655; in the assay with Temozolomide + Lapatinib (first compound 6.325 µM), 0.611; with Temozolomide + Lapatinib (first compound 20 µM), 1.21; in the assay with AZD5582 + Pemetrexed (first compound 0.001581 µM) it was 0.185; with AZD5582 + Pemetrexed (first compound 0.005 µM) it was 0.205; with AZD5582 + Pemetrexed (first compound 0.01581 µM) it was 0.16. Besides, the relative viability with AZD5582 + Pemetrexed (first compound 0.05 µM) turned out to be 0.16; with AZD5582 + Linsitinib (first compound 0.005 µM), 0.16; in the assay with AZD5582 + Linsitinib (first compound 0.01581 µM), 0.191; in the assay with AZD5582 + Linsitinib (first compound 0.05 µM), 0.148.

Regarding NCI-H1734, the relative viability with AZD5582 + Dasatinib (first compound 0.001581 µM) was 0.468; with AZD5582 + Dasatinib (first compound 0.005 µM), 0.548; in the assay with AZD5582 + Dasatinib (first compound 0.01581 µM), 0.434; with AZD5582 + Dasatinib (first compound 0.05 µM), 0.664; with Temozolomide + Lapatinib (first compound 0.2 µM), 1.12; in the assay with Temozolomide + Lapatinib (first compound 0.6325 µM) it was 1.06. Moreover, the relative viability with Temozolomide + Lapatinib (first compound 2 µM) stood at 1.07; in the assay with Temozolomide + Lapatinib (first compound 6.325 µM), 0.955; with Temozolomide + Lapatinib (first compound 20 µM) it was 1.05; with AZD5582 + Pemetrexed (first compound 0.001581 µM), 0.406; with AZD5582 + Pemetrexed (first compound 0.005 µM), 0.407; in the assay with AZD5582 + Pemetrexed (first compound 0.01581 µM), 0.415. Also, the relative viability is 0.437 in the assay with AZD5582 + Pemetrexed (first compound 0.05 µM); 0.953 in the assay with AZD5582 + Linsitinib (first compound 0.001581 µM); 0.869 with AZD5582 + Linsitinib (first compound 0.005 µM); 0.895 with AZD5582 + Linsitinib (first compound 0.01581 µM); 1.1 with AZD5582 + Linsitinib (first compound 0.05 µM).

Turning to NCI-H522, the relative viability with AZD5582 + Dasatinib (first compound 0.001581 µM) stood at 0.935; in the assay with AZD5582 + Dasatinib (first compound 0.005 µM), 0.876; with AZD5582 + Dasatinib (first compound 0.01581 µM), 0.846; with AZD5582 + Dasatinib (first compound 0.05 µM), 1.45; with AZD5582 + Pemetrexed (first compound 0.001581 µM) it was 0.989; with AZD5582 + Pemetrexed (first compound 0.005 µM), 1.13. Further, the values for the relative viability with AZD5582 + Pemetrexed (first compound 0.01581 µM) and in the assay with AZD5582 + Pemetrexed (first compound 0.05 µM) were 0.976 and 0.823, respectively.

IA-LM: the relative viability with Temozolomide + Lapatinib (first compound 0.2 µM) was determined as 0.913; with Temozolomide + Lapatinib (first compound 0.6325 µM), 0.976; with Temozolomide + Lapatinib (first compound 2 µM), 0.935; with Temozolomide + Lapatinib (first compound 6.325 µM) it was 0.758; with Temozolomide + Lapatinib (first compound 20 µM) it was 0.716; with AZD5582 + Linsitinib (first compound 0.001581 µM) it was 0.5. For the same cell line, the relative viability in the assay with AZD5582 + Linsitinib (first compound 0.005 µM) is 0.479; with AZD5582 + Linsitinib (first compound 0.01581 µM), 0.64; with AZD5582 + Linsitinib (first compound 0.05 µM) it was 0.599.

As to NCI-H1299, the relative viability with Temozolomide + Lapatinib (first compound 0.2 µM) came out at 1.03; with Temozolomide + Lapatinib (first compound 0.6325 µM), 0.98; in the assay with Temozolomide + Lapatinib (first compound 2 µM), 0.994; with Temozolomide + Lapatinib (first compound 6.325 µM), 0.97; with Temozolomide + Lapatinib (first compound 20 µM), 0.962; with AZD5582 + Linsitinib (first compound 0.001581 µM) it was 0.93. For the same cell line, the values for the relative viability with AZD5582 + Linsitinib (first compound 0.005 µM), in the assay with AZD5582 + Linsitinib (first compound 0.01581 µM) and with AZD5582 + Linsitinib (first compound 0.05 µM) were 1.04, 1.01 and 0.97, respectively.

For the cell line NCI-H1623, the relative viability was 0.514 in the assay with AZD5582 + Dasatinib (first compound 0.001581 µM), 0.582 with AZD5582 + Dasatinib (first compound 0.005 µM), 0.559 in the assay with AZD5582 + Dasatinib (first compound 0.01581 µM) and 0.433 with AZD5582 + Dasatinib (first compound 0.05 µM).

In the case of LCLC-103H, the relative viability stood at 0.411 with AZD5582 + Dasatinib (first compound 0.001581 µM); 0.475 with AZD5582 + Dasatinib (first compound 0.005 µM); 0.403 in the assay with AZD5582 + Dasatinib (first compound 0.01581 µM); 0.152 in the assay with AZD5582 + Dasatinib (first compound 0.05 µM); 0.386 with AZD5582 + Pemetrexed (first compound 0.001581 µM); 0.426 with AZD5582 + Pemetrexed (first compound 0.005 µM). Moreover, the relative viability in the assay with AZD5582 + Pemetrexed (first compound 0.01581 µM) was 0.443; with AZD5582 + Pemetrexed (first compound 0.05 µM) it was 0.352; with AZD5582 + Linsitinib (first compound 0.001581 µM) it was 1.06; with AZD5582 + Linsitinib (first compound 0.005 µM) it was 1.33; in the assay with AZD5582 + Linsitinib (first compound 0.01581 µM) it was 1; with AZD5582 + Linsitinib (first compound 0.05 µM) it was 1.19.

Consider NCI-H1648, for which the relative viability was 0.654 with AZD5582 + Pemetrexed (first compound 0.001581 µM), 0.738 with AZD5582 + Pemetrexed (first compound 0.005 µM) and 0.708 in the assay with AZD5582 + Pemetrexed (first compound 0.05 µM).

Turning to ChaGo-K-1, the relative viability was found to be 0.579 in the assay with AZD5582 + Dasatinib (first compound 0.001581 µM); 0.669 in the assay with AZD5582 + Dasatinib (first compound 0.005 µM); 0.596 with AZD5582 + Dasatinib (first compound 0.01581 µM); 0.488 with AZD5582 + Dasatinib (first compound 0.05 µM); 0.243 in the assay with AZD5582 + Pemetrexed (first compound 0.001581 µM); 0.267 with AZD5582 + Pemetrexed (first compound 0.005 µM). Besides, the values for the relative viability in the assay with AZD5582 + Pemetrexed (first compound 0.01581 µM) and in the assay with AZD5582 + Pemetrexed (first compound 0.05 µM) were 0.254 and 0.276, respectively.

On to Calu-6, for which the relative viability with Temozolomide + Lapatinib (first compound 0.2 µM) is 1.17; with Temozolomide + Lapatinib (first compound 0.6325 µM), 1.07; in the assay with Temozolomide + Lapatinib (first compound 2 µM), 1.11; with Temozolomide + Lapatinib (first compound 6.325 µM), 1.13; in the assay with Temozolomide + Lapatinib (first compound 20 µM), 1.16; in the assay with AZD5582 + Linsitinib (first compound 0.001581 µM), 0.811. In addition, the figures for the relative viability in the assay with AZD5582 + Linsitinib (first compound 0.01581 µM) and with AZD5582 + Linsitinib (first compound 0.05 µM) were 0.985 and 0.768, respectively.

As to NCI-H2342, the relative viability with AZD5582 + Dasatinib (first compound 0.001581 µM) turned out to be 0.316; with AZD5582 + Dasatinib (first compound 0.005 µM) it was 0.315; with AZD5582 + Dasatinib (first compound 0.01581 µM) it was 0.27; in the assay with AZD5582 + Dasatinib (first compound 0.05 µM) it was 0.319; in the assay with AZD5582 + Pemetrexed (first compound 0.001581 µM), 0.79; with AZD5582 + Pemetrexed (first compound 0.005 µM), 0.747. In addition, the relative viability in the assay with AZD5582 + Pemetrexed (first compound 0.01581 µM) is 0.756; in the assay with AZD5582 + Pemetrexed (first compound 0.05 µM) it was 0.791.

In the case of NCI-H1650, the relative viability was found to be 0.293 in the assay with AZD5582 + Dasatinib (first compound 0.001581 µM); 0.352 in the assay with AZD5582 + Dasatinib (first compound 0.005 µM); 0.341 with AZD5582 + Dasatinib (first compound 0.01581 µM); 0.344 in the assay with AZD5582 + Dasatinib (first compound 0.05 µM); 0.991 in the assay with Temozolomide + Lapatinib (first compound 0.2 µM); 0.925 with Temozolomide + Lapatinib (first compound 0.6325 µM). Besides, the relative viability with Temozolomide + Lapatinib (first compound 2 µM) amounted to 0.783; with Temozolomide + Lapatinib (first compound 6.325 µM), 0.662; in the assay with Temozolomide + Lapatinib (first compound 20 µM), 0.743; in the assay with AZD5582 + Pemetrexed (first compound 0.001581 µM), 0.385; with AZD5582 + Pemetrexed (first compound 0.005 µM), 0.396; in the assay with AZD5582 + Pemetrexed (first compound 0.01581 µM), 0.362. Moreover, in the assay with AZD5582 + Pemetrexed (first compound 0.05 µM), the relative viability stood at 0.412.

On to EBC-1, for which the relative viability is 0.197 in the assay with Temozolomide + Lapatinib (first compound 0.2 µM); 0.193 in the assay with Temozolomide + Lapatinib (first compound 0.6325 µM); 0.252 with Temozolomide + Lapatinib (first compound 2 µM); 0.203 with Temozolomide + Lapatinib (first compound 6.325 µM); 0.194 in the assay with Temozolomide + Lapatinib (first compound 20 µM); 0.828 in the assay with AZD5582 + Linsitinib (first compound 0.001581 µM). For the same cell line, the relative viability in the assay with AZD5582 + Linsitinib (first compound 0.005 µM) came out at 0.939; in the assay with AZD5582 + Linsitinib (first compound 0.01581 µM), 0.883; in the assay with AZD5582 + Linsitinib (first compound 0.05 µM), 1.03.

Consider A549, for which the relative viability with Temozolomide + Lapatinib (first compound 0.2 µM) was determined as 0.989; with Temozolomide + Lapatinib (first compound 0.6325 µM), 1.03; in the assay with Temozolomide + Lapatinib (first compound 2 µM), 1.01; in the assay with Temozolomide + Lapatinib (first compound 6.325 µM) it was 1.03; with Temozolomide + Lapatinib (first compound 20 µM) it was 0.912; with AZD5582 + Linsitinib (first compound 0.001581 µM), 0.545. Further, the relative viability is 0.768 with AZD5582 + Linsitinib (first compound 0.005 µM), 0.444 with AZD5582 + Linsitinib (first compound 0.01581 µM) and 0.726 in the assay with AZD5582 + Linsitinib (first compound 0.05 µM).

For SW 900, the relative viability in the assay with AZD5582 + Dasatinib (first compound 0.001581 µM) came out at 0.482; with AZD5582 + Dasatinib (first compound 0.005 µM), 0.424; with AZD5582 + Dasatinib (first compound 0.01581 µM), 0.393; with AZD5582 + Dasatinib (first compound 0.05 µM), 0.653; in the assay with AZD5582 + Pemetrexed (first compound 0.001581 µM) it was 0.366; with AZD5582 + Pemetrexed (first compound 0.005 µM), 0.466. Further, the figures for the relative viability with AZD5582 + Pemetrexed (first compound 0.01581 µM) and with AZD5582 + Pemetrexed (first compound 0.05 µM) were 0.486 and 0.435, respectively.
